# System: C57BL/6 mice
# Assay: In vivo food intake and body weight in C57BL/6 mice
# Conditions: 30 nmol/kg subcutaneously every day for 10 days
# Description: 10 week old male C57BL/6 mice were injected everyday subcutaneously with 30 nmol/kg of the fusion proteins for 10 days (n=5/group), semaglutide was studied in parallel as a control. Body weight (BW) was measured daily for each individual animal and food intake was measured daily for each entire treatment group. Day 1 and Day 10 are the first day and the last day of treatment. % BW loss=100*(BW on Day n−BW on Day 1)/(BW on Day 1). Cumulative food intake on Day n represents sum of food intake from Day 1 to Day n. Data are indicated as mean values and standard error (SEM) or pooled values. Body weight reduction on Day 11 is calculated by −1*(% BW loss of treatment group-% BW loss of vehicle group); Cumulative food intake reduction on Day 11 is calculated by −100*(cumulative food intake of treatment group−cumulative food intake of vehicle group)/cumulative food intake of vehicle group.
substance,measurement,value
semaglutide [reference compound],Body weight reduction at 30 nmol/kg (% reduction compared to vehicle) (Day 11),7.27%
same,Cumulative food intake reduction at 30 nmol/kg (% reduction compared to vehicle) (Day 11),11.8%

# Source: patent publication US11884711B2, “Fusion proteins of GDF15 and use thereof” (BEIJING QL BIOPHARMACEUTICAL CO., LTD., priority 2020, dated 2024)
